Experimental data: PMC6499816, “Molecular determinants regulating selective binding of autophagy adapters and receptors to ATG8 proteins” (Nature Communications, 2019)
Like-named read-outs stand apart in the source and are kept apart here. Ends that are not written are not given here.

How the values were obtained:
[1] = biological target: T1, GABARAPL1 (Homo sapiens, UniProt Q9H0R8); test: BLI, LIR peptide binding to GABARAPL1
T1 construct: insertion of full-length human GABARAP, GABARAP-L1, LC3A, and LC3C, and EcoRI and NotI restrictions sites for cloning of LC3B and GABARAP-L2; GST (followed by 3C protease site) (N); made in house; host or cells: bacteria (E. coli BL21 (DE3) pLysS is stated for the GST-ATG8 proteins of the overlay assay)
T1 sequence (Q9H0R8 whole entry): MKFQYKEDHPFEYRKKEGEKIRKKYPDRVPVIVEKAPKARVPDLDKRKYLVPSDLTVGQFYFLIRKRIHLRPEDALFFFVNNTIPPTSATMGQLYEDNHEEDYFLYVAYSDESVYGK
Experimental: (§1) For recombinant protein expression in bacteria, a modified plasmid of pGEX-6P2 (GE Healthcare) (referred to as pAL) containing an N-terminal […] followed by a 3C protease cleavage site was used.
(§2) Expression was induced by the addition of 0.5 mM IPTG at OD600 = 0.6 and cells were incubated at 25 °C overnight or at 37 °C for 5 h. Harvested cells were lysed in 50 mM Tris-HCl, pH 8.0, 500 mM NaCl, 0.1% Triton X-100, 0.4 mM 4-(2-aminoethyl)-benzenesulfonylfluoride HCl (AEBSF), and 15 µg/ml benzamidine. Fusion protein was batch adsorbed onto Glutathione-Sepharose 4B beads (GE Healthcare). After five washes with wash buffer (50 mM Tris, pH 8.0, 250 mM NaCl, 0.4 mM AEBSF, and 15 µg/ml benzamidine), fusion proteins were eluted in 50 mM Tris, pH 8.0, 2 mM L-glutathione reduced, 0.4 mM AEBSF, and 15 µg/ml benzamidine.
(§3) The biosensor tip surface immobilized with a ligand is incubated with an analyte in solution, resulting in an increase in optical thickness at the biosensor tip and a wavelength shift, which is a direct measure of the change in thickness. […] Ligand-loaded SA biosensors were then incubated with different concentrations of ATG8. All binding experiments were performed in solid-black 96-well plates containing 200 μl of solution (25 mM Tris, pH 7.5, 150 mM NaCl, 0.5 mM TCEP, 0.1% Tween-20, 1 mg/ml bovine serum albumin (BSA)) in each well at 25 °C with an agitation speed of 1000 rpm. Each measurement was repeated two to five times.
(§4) Peptides were synthesized using FMOC (fluorenylmethoxycarbonyl) solid-phase peptide chemistry by the Francis Crick Peptide Chemistry Technology Platform and are listed in Supplementary Table 2.

[2] = biological target: T2, GABARAPL2 (Homo sapiens, UniProt P60520); test: BLI, LIR peptide binding to GABARAPL2; conditions: read-out: Kd (best-fit value)
T2 construct: insertion of full-length human GABARAP, GABARAP-L1, LC3A, and LC3C, and EcoRI and NotI restrictions sites for cloning of LC3B and GABARAP-L2; GST (followed by 3C protease site) (N); made in house; host or cells: bacteria (E. coli BL21 (DE3) pLysS is stated for the GST-ATG8 proteins of the overlay assay)
T2 sequence (P60520 whole entry): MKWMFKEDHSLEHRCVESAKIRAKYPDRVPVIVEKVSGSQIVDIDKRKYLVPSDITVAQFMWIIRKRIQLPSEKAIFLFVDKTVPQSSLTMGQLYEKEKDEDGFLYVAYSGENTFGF
Experimental: as §1, §2, §3, §4

[3] = biological target: T3, LC3C (Homo sapiens, UniProt Q9BXW4); test: BLI, LIR peptide binding to LC3C; conditions: read-out: Kd (best-fit value)
T3 construct: insertion of full-length human GABARAP, GABARAP-L1, LC3A, and LC3C, and EcoRI and NotI restrictions sites for cloning of LC3B and GABARAP-L2; GST (followed by 3C protease site) (N); made in house; host or cells: bacteria (E. coli BL21 (DE3) pLysS is stated for the GST-ATG8 proteins of the overlay assay)
T3 sequence (Q9BXW4 whole entry): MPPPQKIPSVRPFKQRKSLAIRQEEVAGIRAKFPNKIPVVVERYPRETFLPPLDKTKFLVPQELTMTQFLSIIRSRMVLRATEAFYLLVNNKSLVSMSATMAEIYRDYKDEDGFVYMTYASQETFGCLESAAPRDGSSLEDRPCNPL
Experimental: as §1, §2, §3, §4

[4] = biological target: T4, GABARAP (Homo sapiens, UniProt O95166); test: BLI, LIR peptide binding to GABARAP; conditions: n=2 independent experiments, read-out: Kd (best-fit value)
T4 construct: insertion of full-length human GABARAP, GABARAP-L1, LC3A, and LC3C, and EcoRI and NotI restrictions sites for cloning of LC3B and GABARAP-L2; GST (followed by 3C protease site) (N); made in house; host or cells: bacteria (E. coli BL21 (DE3) pLysS is stated for the GST-ATG8 proteins of the overlay assay)
T4 sequence (O95166 whole entry): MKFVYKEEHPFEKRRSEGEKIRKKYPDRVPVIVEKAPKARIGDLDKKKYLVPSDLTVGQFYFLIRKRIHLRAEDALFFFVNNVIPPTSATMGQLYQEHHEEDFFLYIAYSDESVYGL
Experimental: as §1, §2, §3, §4

[5] = biological target: T5, LC3A (Homo sapiens, UniProt Q9H492); test: Bio-layer interferometry (BLI), LIR peptide binding to LC3A; conditions: read-out: Kd (best-fit value)
T5 construct: insertion of full-length human GABARAP, GABARAP-L1, LC3A, and LC3C, and EcoRI and NotI restrictions sites for cloning of LC3B and GABARAP-L2; GST (followed by 3C protease site) (N); made in house; host or cells: bacteria (E. coli BL21 (DE3) pLysS is stated for the GST-ATG8 proteins of the overlay assay)
Experimental: as §1, §2, §3, §4

[6] = biological target: T6, LC3B (Homo sapiens, UniProt Q9GZQ8); test: BLI, LIR peptide binding to LC3B; conditions: read-out: Kd (best-fit value)
T6 construct: insertion of full-length human GABARAP, GABARAP-L1, LC3A, and LC3C, and EcoRI and NotI restrictions sites for cloning of LC3B and GABARAP-L2; GST (followed by 3C protease site) (N); made in house; host or cells: bacteria (E. coli BL21 (DE3) pLysS is stated for the GST-ATG8 proteins of the overlay assay)
Experimental: as §1, §2
The biosensor tip surface immobilized with a ligand is incubated with an analyte in solution, resulting in an increase in optical thickness at the biosensor tip and a wavelength shift, which is a direct measure of the change in thickness. […] Ligand-loaded SA biosensors were then incubated with different concentrations of ATG8. […]

[7] = fit of response vs GABARAPL1 concentration (μM), n=2 independent experiments, read-out: Kd (best-fit value)
[8] = fit of response vs GABARAP concentration (μM)
[9] = Fig. 4c, fit of response vs GABARAP concentration
[10] = Fig. 4c, fit of response vs GABARAPL1 concentration, n=2 independent experiments, read-out: Kd (best-fit value)

Molecule	Kd [1, 7] [µM]	Kd [2] [nM]	Kd [3] [nM]	Kd [4, 8] [µM]	Kd [5] [nM]	Kd [6] [nM]	Kd [4, 9] [µM]	Kd [1, 10] [µM]	Kd ([1]; immobilised biotinylated LIR peptide, pH 7.5, 25 °C, mean ± s.d., n = 2–4, pictures print no unit, µM as, read-out: Kd, LIR peptide to GABARAPL1) [µM]
CSCC[C@H](NC(=O)[C@@H](NC(=O)[C@H](Cc1ccccc1)NC(=O)[C@H](CC(=O)O)NC(=O)[C@H](CC(=O)O)NC(=O)[C@@H](NC(=O)[C@@H](N)CC(=O)O)[C@@H](C)O)C(C)C)C(=O)N[C@H](C(=O)N1CCC[C@H]1C(=O)N[C@@H](C)C(=O)N[C@@H](CCC(N)=O)C(=O)N[C@@H](Cc1ccccc1)C(=O)N1CCC[C@H]1C(=O)NCC(=O)N[C@@H](CC(=O)O)C(=O)N[C@@H](CC(C)C)C(=O)N[C@H](C(=O)O)C(C)C)C(C)C [ULK1 (aa 353-369)]	0.102	583							
DDFVMVPAQFPGDLV [ULK1 (aa 355-369)]	0.243	2210	7840	0.288					
DSSCDTDDFVMV [ULK1 (aa 349-360)]	0.22	1090	2210	0.218	2920	8470			
DSSCDTDDFVMVPA [ULK1 (aa 349-362)]	0.148	712	2780	0.174	9230				
DSSCDTDDFVMVPAQF [ULK1 (aa 349-364)]	0.161	534	2230		8370				
SQKSDEEDFDIIEDLPLKLTI [PCM1 V1956D/ K1957I/ V1958I]			2350		4610		1.39	0.907	
SQKSDEEDFDKVEDLPLKLTI [PCM1 V1956D]							7.72	5.19	
SQKSDEEDFVIVEDLPLKLTI [PCM1 K1967I]			384		3930			0.131	
SQKSDEEDFVKIEDLPLKLTI [PCM1 V1959I]		7580	6940				1.46	1.07	
SQKSDEEDFVKIEDLPLKLTI [Γ3]									1.1 ± 0.1
SQKSDEEDFVKVEDLALKLTI [PCM1 P1962A]		10500	10800				0.994	0.879	
SQKSDEEDFVKVTDLPLKLTI [PCM1 E1959T]								2.89	
YRPPDDAVFDIITDEELCQIQ [FYCO1 WT]			3040		778	1130	1.73	0.9	
